Test results: patent US20220030865A1, “COMPOSITIONS COMPRISING FLORPYRAUXIFEN THAT SAFEN WHITE CLOVER AND METHODS OF USE THEREOF” (CORTEVA AGRISCIENCE LLC, priority 2018, published 2022)

How the values were obtained:
[1] = test system: tall buttercup (RANAC, Ranunculus acris); experiment: Field trial, postemergence herbicidal effect on pasture weeds
Description: (§1) Trials were designed as randomized complete blocks with four replicates. All trials were established with a minimum plot size of 3 meters (m) by 8 m (width×length). All herbicide treatments were applied post-emergence with applications made to the undesirable vegetation. Herbicides were applied with backpack sprayers using carbon dioxide (CO2) as a propellant. The sprayers utilized flat fan spray nozzles calibrated to deliver a uniform spray pattern that provided thorough coverage of the foliage using a 187 L/ha spray volume. All treatments were applied with Activator 90 non-ionic surfactant at 0.25% v/v.
(§2) The weeds were evaluated on the number of days after application (DAA) given in each table below. Injury to the weeds was assessed visually at several intervals after application as percent overall injury, compared to an untreated control plot. The overall injury assessments were based on visual ratings of growth inhibition, leaf deformity, epinasty, and chlorosis.

[2] = test system: mayweed chamomile (ANTCO, Anthemis cotula); experiment: as above; conditions: 14 DAA
Description: as §1, §2

[3] = test system: Virginia pepperweed (LEPVI, Lepidium virginicum); experiment: as above; conditions: 27 DAA
Description: as §1, §2

[4] = test system: sickle pod (CASOB, Senna obtusifolia); experiment: as above
Description: as §1, §2

[5] = test system: bitter sneezeweed (HENAM, Helenium amarum); experiment: as above
Description: as §1, §2

[6] = test system: annual yellow sweetclover (MEUIN, Melilotus indicus); experiment: as above; conditions: 30 DAA
Description: as §1, §2

[7] = test system: annual marsh-elder (IVAAN, Iva annua); experiment: as above
Description: as §1, §2

[8] = test system: brown knapweed (CENJA, Centaurea jacea); experiment: as above
Description: as §1, §2

[9] = test system: goldenrod (SOOSS, Solidago sp.); experiment: as above; conditions: 67 DAA
Description: as §1, §2

[10] = test system: hairy aster (ASTPI, Symphyotrichum pilosum); experiment: as above
Description: as §1, §2

[11] = test system: white clover (TRFRE, Trifolium repens); experiment: Field trial United States, safening effect (visual injury) on white clover
Description: Field trials were established in multiple states in the United States to evaluate the safening effect of herbicide treatments to white clover (TRFRE, Trifolium repens) in existing pasture lands. Trials were designed as randomized complete blocks with four replicates. All trials were established with a minimum plot size of 3 meters (m) by 8 m (width×length).
All herbicide treatments were applied post-emergence with applications made to the white clover. Herbicides were applied with backpack sprayers using carbon dioxide (CO2) as a propellant. The sprayers utilized flat fan spray nozzles calibrated to deliver a uniform spray pattern that provided thorough coverage of the foliage using a 187 L/ha spray volume. All treatments were applied with Activator 90 non-ionic surfactant at 0.25% v/v.
The white clover was evaluated on the number of days after application (DAA) given in each table below. Injury to the white clover was assessed visually at several intervals after application as percent overall injury, compared to an untreated control plot. The overall injury assessments were based on visual ratings of growth inhibition, leaf deformity, epinasty, and chlorosis.

## O=C(O)COc1ccc(Cl)cc1Cl [2,4-D Choline, 2,4-D choline]
[1]; 10 DAA, 750 g ae/ha
  Visual Weed Control RANAC Obs: 8%
[1]; 40 DAA, 750 g ae/ha
  Visual Weed Control RANAC Obs: 28%
[2]; 840 g ae/ha
  Visual Weed Control ANTCO Obs: 30%
[3]; 840 g ae/ha
  Visual Weed Control LEPVI Obs: 74%
[4]; 30 DAA, 840 g ae/ha
  Visual Weed Control CASOB Obs: 10%
[4]; 45 DAA, 840 g ae/ha
  Visual Weed Control CASOB Obs: 10%
[5]; 30 DAA, 840 g ae/ha
  Visual Weed Control HENAM Obs: 74%
[5]; 80 DAA, 840 g ae/ha
  Visual Weed Control HENAM Obs: 90%
[6]; 840 g ae/ha
  Visual Weed Control MEUIN Obs: 20%
[7]; 41 DAA, 840 g ae/ha
  Visual Weed Control IVAAN Obs: 38%
[7]; 56 DAA, 840 g ae/ha
  Visual Weed Control IVAAN Obs: 38%
[7]; 75 DAA, 840 g ae/ha
  Visual Weed Control IVAAN Obs: 30%
[7]; 83 DAA, 840 g ae/ha
  Visual Weed Control IVAAN Obs: 35%
[8]; 67 DAA, 840 g ae/ha
  Visual Weed Control CENJA Obs: 0%
[8]; 88 DAA, 840 g ae/ha
  Visual Weed Control CENJA Obs: 0%
[8]; 117 DAA, 840 g ae/ha
  Visual Weed Control CENJA Obs: 0%
[9]; 840 g ae/ha
  Visual Weed Control SOOS Obs: 15%
[10]; 88 DAA, 840 g ae/ha
  Visual Weed Control ASTPI Obs: 10%
[10]; 117 DAA, 840 g ae/ha
  Visual Weed Control ASTPI Obs: 5%
[11]; 0 DAA, 754 g ae/ha
  Visual Injury TRFRE Obs: 30%
[11]; 0 DAA, 840 g ae/ha
  Visual Injury TRFRE Obs: 6.5%
[11]; 7 DAA, 754 g ae/ha
  Visual Injury TRFRE Obs: 4.8%
[11]; 7 DAA, 840 g ae/ha
  Visual Injury TRFRE Obs: 10%
[11]; 14 DAA, 754 g ae/ha
  Visual Injury TRFRE Obs: 86.2%
[11]; 14 DAA, 840 g ae/ha
  Visual Injury TRFRE Obs: 15%
[11]; 21 DAA, 840 g ae/ha
  Visual Injury TRFRE Obs: 11.2%
[11]; 28 DAA, 840 g ae/ha
  Visual Injury TRFRE Obs: 10%

## COc1c(Cl)ccc(-c2nc(C(=O)OCc3ccccc3)c(Cl)c(N)c2F)c1F [Florpyrauxifen Benzyl, florpyrauxifen benzyl]
[1]; 10 DAA, 9.44 g ae/ha
  Visual Weed Control RANAC Obs: 0%
[1]; 40 DAA, 9.44 g ae/ha
  Visual Weed Control RANAC Obs: 0%
[2]; 12.5 g ae/ha
  Visual Weed Control ANTCO Obs: 10%
[3]; 9.5 g ae/ha
  Visual Weed Control LEPVI Obs: 62%
[3]; 12.5 g ae/ha
  Visual Weed Control LEPVI Obs: 70%
[3]; 19 g ae/ha
  Visual Weed Control LEPVI Obs: 65%
[4]; 30 DAA, 12.5 g ae/ha
  Visual Weed Control CASOB Obs: 10%
[4]; 30 DAA, 19 g ae/ha
  Visual Weed Control CASOB Obs: 10%
[4]; 45 DAA, 12.5 g ae/ha
  Visual Weed Control CASOB Obs: 10%
[4]; 45 DAA, 19 g ae/ha
  Visual Weed Control CASOB Obs: 10%
[5]; 30 DAA, 9.5 g ae/ha
  Visual Weed Control HENAM Obs: 60%
[5]; 30 DAA, 12.5 g ae/ha
  Visual Weed Control HENAM Obs: 60%
[5]; 80 DAA, 12.5 g ae/ha
  Visual Weed Control HENAM Obs: 40%
[6]; 19 g ae/ha
  Visual Weed Control MEUIN Obs: 10%
[7]; 41 DAA, 12.5 g ae/ha
  Visual Weed Control IVAAN Obs: 38%
[7]; 41 DAA, 19 g ae/ha
  Visual Weed Control IVAAN Obs: 50%
[7]; 56 DAA, 12.5 g ae/ha
  Visual Weed Control IVAAN Obs: 42%
[7]; 75 DAA, 9.5 g ae/ha
  Visual Weed Control IVAAN Obs: 25%
[7]; 75 DAA, 12.5 g ae/ha
  Visual Weed Control IVAAN Obs: 48%
[7]; 83 DAA, 9.5 g ae/ha
  Visual Weed Control IVAAN Obs: 30%
[7]; 83 DAA, 12.5 g ae/ha
  Visual Weed Control IVAAN Obs: 48%
[8]; 67 DAA, 19 g ae/ha
  Visual Weed Control CENJA Obs: 62%
[8]; 88 DAA, 19 g ae/ha
  Visual Weed Control CENJA Obs: 62%
[8]; 117 DAA, 9.5 g ae/ha
  Visual Weed Control CENJA Obs: 21%
[8]; 117 DAA, 19 g ae/ha
  Visual Weed Control CENJA Obs: 31%
[9]; 9.5 g ae/ha
  Visual Weed Control SOOS Obs: 75%
[10]; 88 DAA, 9.5 g ae/ha
  Visual Weed Control ASTPI Obs: 75%
[10]; 117 DAA, 9.5 g ae/ha
  Visual Weed Control ASTPI Obs: 20%
